Our source for the relative viability values is the supplement of paper PMC10307832.

What all share (experiment): relative viability (nuclei count vs DMSO), 5 days (fraction); higher = more cells survive
Compound in the test “TGX 221 + Dasatinib”: CC1=CN2C(=O)C=C(N=C2C(=C1)C(C)NC3=CC=CC=C3)N4CCOCC4 [TGX 221] + Cc1nc(Nc2ncc(C(=O)Nc3c(C)cccc3Cl)s2)cc(N2CCN(CCO)CC2)n1 [Dasatinib] (partner 0.075 µM)
In outline:
(§1)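 Lung cancer cell lines, seeded in 1536-well plates, were treated the following day by pin tool with a single drug or with five library-drug doses (not always all listed) in √10 steps on top of a fixed anchor-drug dose. Cells were fixed and nuclei stained in one step after 5 days, and nuclei were counted. Relative viability is the nuclei count for treated wells divided by that for vehicle wells, reported as medians of duplicate plates.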

Compound in the test “TGX 221 + Lapatinib”: CC1=CN2C(=O)C=C(N=C2C(=C1)C(C)NC3=CC=CC=C3)N4CCOCC4 [TGX 221] + CS(=O)(=O)CCNCc1ccc(-c2ccc3ncnc(Nc4ccc(OCc5cccc(F)c5)c(Cl)c4)c3c2)o1 [Lapatinib] (partner 2 µM)
In outline:
as §1

Compound in the test “TGX 221 + Bortezomib”: CC1=CN2C(=O)C=C(N=C2C(=C1)C(C)NC3=CC=CC=C3)N4CCOCC4 [TGX 221] + CC(C)C[C@H](NC(=O)[C@H](Cc1ccccc1)NC(=O)c1cnccn1)B(O)O [Bortezomib] (partner 0.002 µM)
In outline: as §1

Compound in test [1]: C1=CC=C(C(=C1)C2=CC=C(C=C2)C3=CSC4=C3C(=C(C(=O)N4)C#N)O)O + CS(=O)(=O)CCNCc1ccc(-c2ccc3ncnc(Nc4ccc(OCc5cccc(F)c5)c(Cl)c4)c3c2)o1 [Lapatinib] (partner 2 µM)
The gist of the method:
as §1

In the case of NCI-H1792, the relative viability with TGX 221 + Dasatinib (first compound 0.08 µM) worked out at 0.831; in the test with TGX 221 + Dasatinib (first compound 0.253 µM), 0.699; with TGX 221 + Dasatinib (first compound 0.8 µM) it was 0.785; with TGX 221 + Dasatinib (first compound 2.53 µM), 0.7; in the test with TGX 221 + Dasatinib (first compound 8 µM), 0.503; in the test with TGX 221 + Lapatinib (first compound 0.08 µM) it was 0.782. Moreover, the relative viability with TGX 221 + Lapatinib (first compound 0.253 µM) amounted to 0.983; with TGX 221 + Lapatinib (first compound 0.8 µM) it was 0.814; in the test with TGX 221 + Lapatinib (first compound 2.53 µM), 0.846; in the test with TGX 221 + Lapatinib (first compound 8 µM), 0.887; in the test with TGX 221 + Bortezomib (first compound 0.08 µM), 0.89; in the test with TGX 221 + Bortezomib (first compound 0.253 µM), 0.922. Also, the relative viability in the test with TGX 221 + Bortezomib (first compound 0.8 µM) came out at 0.944; with TGX 221 + Bortezomib (first compound 2.53 µM), 0.904; with TGX 221 + Bortezomib (first compound 8 µM) it was 0.838; in test [1] (first compound 0.253 µM) it was 0.543; in test [1] (first compound 0.8 µM) it was 0.854; in test [1] (first compound 2.53 µM), 0.92. In test [1] (first compound 8 µM), the relative viability was found to be 0.658.
